Broadly, the IC50 is the midpoint of a concentration-inhibition curve.

Experimental findings from patent US8415469B2, “Compounds and methods for kinase modulation, and indications therefor” (Plexxikon Inc., priority 2005, dated 2013) are described below.

Common to all, as to assay type: biochemical
The target of one experiment is T1, Abl (Homo sapiens, UniProt P00519).
T1 construct: P1121. pET-SPEC BI-PTP Abl G227-V515-X; His6 (N); made in house; host or cells: E. coli (PTP1B co-expressed)
T1 sequence (P00519 with tags, fused parts or gaps): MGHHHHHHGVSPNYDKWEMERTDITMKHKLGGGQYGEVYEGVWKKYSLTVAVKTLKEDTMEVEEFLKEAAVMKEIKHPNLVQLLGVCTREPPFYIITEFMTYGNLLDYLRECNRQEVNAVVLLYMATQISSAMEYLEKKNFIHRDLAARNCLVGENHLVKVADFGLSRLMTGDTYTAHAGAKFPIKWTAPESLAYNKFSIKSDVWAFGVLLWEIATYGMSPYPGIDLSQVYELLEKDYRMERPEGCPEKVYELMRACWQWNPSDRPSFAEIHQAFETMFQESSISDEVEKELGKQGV
Briefly: AlphaScreen kinase assay, Abl. As to conditions: read-out: activity toward kinase Abl, IC50. A digest of the protocol:
(§1)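 Emission from acceptor beads reports phosphorylated biotin-peptide bridging antibody-coated acceptor and streptavidin donor beads; loss of signal reflects kinase inhibition. Eight-point, threefold dilution series prepared from 20 mM DMSO stocks.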

The target in a further experiment is Akt3 (Homo sapiens, UniProt Q9Y243). Briefly: AlphaScreen kinase assay, Akt3. Particulars: read-out: IC50, activity toward kinase Akt3. The gist of the method: as §1
Sequence of Akt3 (Q9Y243 whole entry): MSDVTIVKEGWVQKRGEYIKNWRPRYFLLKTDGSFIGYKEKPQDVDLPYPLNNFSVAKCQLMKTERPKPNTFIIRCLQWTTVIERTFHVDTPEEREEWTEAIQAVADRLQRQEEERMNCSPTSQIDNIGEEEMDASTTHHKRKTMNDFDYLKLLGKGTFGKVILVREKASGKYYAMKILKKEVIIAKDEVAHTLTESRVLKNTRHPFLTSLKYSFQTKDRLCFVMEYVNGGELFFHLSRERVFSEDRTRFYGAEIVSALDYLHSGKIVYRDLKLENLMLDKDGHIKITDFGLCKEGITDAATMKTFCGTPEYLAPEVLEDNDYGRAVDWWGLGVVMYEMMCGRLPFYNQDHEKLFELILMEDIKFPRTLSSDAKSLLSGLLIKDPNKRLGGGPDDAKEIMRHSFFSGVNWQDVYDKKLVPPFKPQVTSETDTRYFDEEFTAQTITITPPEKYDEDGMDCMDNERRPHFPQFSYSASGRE
On the technique in general: Bead proximity is the source of the signal in Alpha formats.

The target in a further experiment is T2, c-Raf-1 (Homo sapiens, UniProt P04049).
T2 construct: purchased Upstate Biotechnology
T2 sequence (P04049 whole entry): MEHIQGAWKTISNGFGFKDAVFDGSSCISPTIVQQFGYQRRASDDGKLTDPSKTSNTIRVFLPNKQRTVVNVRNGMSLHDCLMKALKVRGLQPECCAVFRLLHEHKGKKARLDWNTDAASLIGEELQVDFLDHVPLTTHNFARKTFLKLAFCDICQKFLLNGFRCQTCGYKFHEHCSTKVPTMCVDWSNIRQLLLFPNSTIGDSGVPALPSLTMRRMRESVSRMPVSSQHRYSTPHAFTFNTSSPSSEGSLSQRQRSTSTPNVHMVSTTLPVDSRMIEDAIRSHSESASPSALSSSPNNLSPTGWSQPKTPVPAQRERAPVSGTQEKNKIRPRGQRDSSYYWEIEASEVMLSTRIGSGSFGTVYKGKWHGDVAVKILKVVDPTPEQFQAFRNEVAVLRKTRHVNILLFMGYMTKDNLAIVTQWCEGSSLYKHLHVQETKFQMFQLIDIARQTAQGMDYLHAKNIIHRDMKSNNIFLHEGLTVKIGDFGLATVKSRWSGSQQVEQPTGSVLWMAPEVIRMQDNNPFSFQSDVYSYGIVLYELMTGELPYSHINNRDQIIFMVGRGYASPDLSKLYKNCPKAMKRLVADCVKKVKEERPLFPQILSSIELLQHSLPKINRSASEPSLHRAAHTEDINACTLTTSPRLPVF
Briefly: AlphaScreen kinase assay, c-Raf-1. Particulars: read-out: IC50, activity toward kinase c-Raf-1.

In a further experiment the target is T3, Jnk1 (Homo sapiens, UniProt P45983).
T3 construct: purchased Upstate Biotechnology
T3 sequence (P45983 whole entry): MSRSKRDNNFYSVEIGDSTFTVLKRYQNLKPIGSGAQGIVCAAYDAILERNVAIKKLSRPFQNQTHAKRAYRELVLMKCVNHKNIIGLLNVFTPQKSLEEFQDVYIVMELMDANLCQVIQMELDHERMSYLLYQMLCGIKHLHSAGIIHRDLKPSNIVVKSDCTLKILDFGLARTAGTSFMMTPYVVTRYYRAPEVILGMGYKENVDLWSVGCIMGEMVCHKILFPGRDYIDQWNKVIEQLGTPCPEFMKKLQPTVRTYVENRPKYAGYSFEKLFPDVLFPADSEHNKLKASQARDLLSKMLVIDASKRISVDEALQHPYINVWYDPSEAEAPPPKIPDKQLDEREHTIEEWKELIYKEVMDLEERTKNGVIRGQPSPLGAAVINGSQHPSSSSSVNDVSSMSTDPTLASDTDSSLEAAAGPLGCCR
Briefly: AlphaScreen kinase assay, Jnk1. As to conditions: read-out: IC50, activity toward kinase Jnk1.

The next experiment has as its target T4, Fak (Homo sapiens, UniProt Q05397).
T4 construct: P1358.pFastBacHtb FAK S411-Q686-X; His6 with pFastBacHTb leader (TEV site) (N); made in house; host or cells: Sf9 (baculovirus)
Kind of experiment: AlphaScreen kinase assay, Fak. As to conditions: read-out: IC50, activity toward kinase Fak.

A further experiment concerns the target T5, Stk6 (Homo sapiens, UniProt O14965).
T5 construct: purchased Invitrogen (Carlsbad, Calif.), screening service
T5 sequence (O14965 1-403): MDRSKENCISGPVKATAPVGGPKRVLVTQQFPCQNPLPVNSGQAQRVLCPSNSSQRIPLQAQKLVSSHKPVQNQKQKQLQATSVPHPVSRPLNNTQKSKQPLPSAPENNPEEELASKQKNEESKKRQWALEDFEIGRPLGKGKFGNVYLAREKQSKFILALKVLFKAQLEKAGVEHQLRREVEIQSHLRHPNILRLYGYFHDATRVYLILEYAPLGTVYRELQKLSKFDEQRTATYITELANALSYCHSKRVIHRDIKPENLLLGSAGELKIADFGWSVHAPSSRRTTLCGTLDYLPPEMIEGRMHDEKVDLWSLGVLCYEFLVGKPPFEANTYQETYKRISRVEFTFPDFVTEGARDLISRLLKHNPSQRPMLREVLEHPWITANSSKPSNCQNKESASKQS
Kind of experiment: Z'-Lyte FRET kinase assay (Invitrogen), Stk6. As to conditions: read-out: IC50, activity toward kinase Stk6.

T4 sequence (Q05397 411-686): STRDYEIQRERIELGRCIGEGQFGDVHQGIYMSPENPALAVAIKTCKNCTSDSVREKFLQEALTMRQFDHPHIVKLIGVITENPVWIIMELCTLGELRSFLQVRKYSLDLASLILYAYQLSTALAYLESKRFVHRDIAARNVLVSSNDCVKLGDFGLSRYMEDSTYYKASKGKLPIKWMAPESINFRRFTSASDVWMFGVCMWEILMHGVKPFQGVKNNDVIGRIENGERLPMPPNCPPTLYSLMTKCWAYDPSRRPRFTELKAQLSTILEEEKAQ

On to `Cc1ccc(S(=O)(=O)NCc2c[nH]c3nccc(-c4cccc(C#N)c4)c23)cc1` [Compound P-0072], for which the IC50 at Abl was at most 10 µM.
Regarding `Oc1ccc(F)c(Cc2c[nH]c3ncc(Br)cc23)c1F` [Compound P-0122, 3-(5-Bromo-1H-pyrrolo[2,3-b]pyridin-3-ylmethyl)-2,4-difluoro-phenol], the IC50 on Akt3 and at c-Raf-1 was at most 10 µM in each case.
For the molecule `CCCCNC(=O)Nc1ccc(F)c(C(=O)c2c[nH]c3ncc(-c4cccnc4)cc23)c1F` [Compound P-1318, 1-Butyl-3-[2,4-difluoro-3-(5-pyridin-3-yl-1H-pyrrolo[2,3-b]pyridine-3-carbonyl)-phenyl]-urea], the IC50 at Jnk1, at Abl, on Fak and on c-Raf-1 was at most 10 µM throughout.
For the molecule `O=C(c1cccc(O)c1F)c1c[nH]c2ncc(-c3ccccc3)cc12` [Compound P-0036, (2-fluoro-3-hydroxy-phenyl)-(5-phenyl-1H-pyrrolo[2,3-b]pyridin-3-yl)-methanone], the IC50 on Jnk1, on Akt3, on Fak and on c-Raf-1 was at most 10 µM throughout.
`O=C(c1cc(O)ccc1F)c1c[nH]c2ncccc12` [Compound P-0005]: the IC50 on Abl, on Akt3 and at c-Raf-1 was at most 10 µM each time.
Regarding `COc1cc(OC)cc(C(=O)c2c[nH]c3ncc(-c4cccc(NS(C)(=O)=O)c4)cc23)c1` [Compound P-1426, N-{3-[3-(3,5-Dimethoxy-benzoyl)-1H-pyrrolo[2,3-b]pyridin-5-yl]-phenyl}-methanesulfonamide], the IC50 at Abl and on Stk6 was at most 10 µM each time.
As to `CS(=O)(=O)c1cccc(-c2cnc3[nH]cc(C(=O)c4c(F)ccc(F)c4F)c3c2)c1` [Compound P-0102, [5-(3-Methanesulfonyl-phenyl)-1H-pyrrolo[2,3-b]pyridin-3-yl]-(2,3,6-trifluoro-phenyl)-methanone], the concentration for half-maximal inhibition (IC50) at Jnk1, at Fak and at c-Raf-1 was at most 10 µM in each case.
With `Nc1ccnc2[nH]cc(C(=O)c3ccccc3)c12` [Compound P-0029], the IC50 at Stk6 is at most 10 µM.
On to `Cc1ccc(F)cc1C(=O)c1c[nH]c2ncc(-c3ccc(C(N)=O)cc3)cc12` [Compound P-0050], for which the IC50 on Abl is at most 10 µM.
Turning to `O=C(c1cc(O)ccc1F)c1c[nH]c2ncc(Br)cc12` [Compound P-0068, (5-Bromo-1H-pyrrolo[2,3-b]pyridin-3-yl)-(2-fluoro-5-hydroxy-phenyl)-methanone], the half-inhibitory concentration (IC50) on Abl was at most 10 µM.
As for `CCCS(=O)(=O)Nc1ccc(F)c(C(=O)c2c[nH]c3ncccc23)c1F` [Compound P-0007, Propane-1-sulfonic acid [2,4-difluoro-3-(1H-pyrrolo[2,3-b]pyridine-3-carbonyl)-phenyl]-amide], the half-maximal inhibitory concentration (IC50) on Abl, on Fak, at c-Raf-1 and on Stk6 was at most 10 µM in each case.
Turning to `O=C(c1cc(O)ccc1F)c1c[nH]c2ncc(-c3cccs3)cc12` [Compound P-0032], the IC50 on Jnk1, on Abl, on Fak, on c-Raf-1 and at Stk6 was at most 10 µM in each case.
On to `O=C(O)/C=C/c1cccc(-c2cnc3[nH]cc(C(=O)c4ccccc4F)c3c2)c1` [Compound P-0033], for which the IC50 on Jnk1, on Abl and at Stk6 was at most 10 µM each time.
On to `Fc1cc(F)cc(-c2ccnc3[nH]cc(Sc4ccccn4)c23)c1` [Compound P-0106], for which the half-maximal inhibitory concentration (IC50) on Stk6 is at most 10 µM.
As to `CCCS(=O)(=O)Nc1ccc(F)c(C(=O)c2c[nH]c3ncc(-c4cccnc4)cc23)c1F` [Compound P-0088, Propane-1-sulfonic acid [2,4-difluoro-3-(5-pyridin-3-yl-1H-pyrrolo[2,3-b]pyridine-3-carbonyl)-phenyl]-amide], the concentration for half-maximal inhibition (IC50) at Jnk1, on Fak, at c-Raf-1 and on Stk6 was at most 10 µM each time.
Turning to `CCCS(=O)(=O)Nc1ccc(F)c(C(=O)c2c[nH]c3ncc(-c4ccccc4)cc23)c1F` [Compound P-0636, Propane-1-sulfonic acid [2,4-difluoro-3-(5-phenyl-1H-pyrrolo[2,3-b]pyridine-3-carbonyl)-phenyl]-amide], the IC50 on Jnk1 and at c-Raf-1 was at most 10 µM each time.
As for `O=C(c1cccc(O)c1F)c1c[nH]c2ncc(-c3cccs3)cc12` [Compound P-0521, (2-fluoro-3-hydroxy-phenyl)-(5-thiophen-2-yl-1H-pyrrolo[2,3-b]pyridin-3-yl)-methanone], the half-maximal inhibitory concentration (IC50) on Jnk1, at Abl and on c-Raf-1 was at most 10 µM each time.
Consider `O=C(c1cccc(O)c1)c1c[nH]c2ncc(-c3cccnc3)cc12` [Compound P-0048], for which the IC50 on Abl and on Akt3 was at most 10 µM in each case.
Turning to `O=C(c1cccc(O)c1)c1c[nH]c2ncc(-c3cccs3)cc12` [Compound P-0196], the concentration for half-maximal inhibition (IC50) at Jnk1, on Abl, on Akt3 and at Fak was at most 10 µM each time.
Turning to `CN(C)S(=O)(=O)Nc1ccc(F)c(Cc2c[nH]c3ncc(-c4cccnc4)cc23)c1F` [Compound P-0166], the IC50 at Fak and on c-Raf-1 was at most 10 µM throughout.
In the case of `COc1ccc(F)c(C(=O)c2c[nH]c3ncc(-c4cccnc4)cc23)c1` [Compound P-0090], the IC50 at Jnk1, on Abl and at c-Raf-1 was at most 10 µM in each case.
On to `COc1cccc(C(=O)c2c[nH]c3ncc(-c4cccc(NC(C)=O)c4)cc23)c1F` [Compound P-1336, N-{3-[3-(2-Fluoro-3-methoxy-benzoyl)-1H-pyrrolo[2,3-b]pyridin-5-yl]-phenyl}-acetamide], for which the 50% inhibitory concentration (IC50) at Jnk1, at Abl, at Fak, at c-Raf-1 and on Stk6 was at most 10 µM each time.
On to `O=C(O)/C=C/c1cccc(-c2cnc3[nH]cc(C(=O)c4cc(O)ccc4F)c3c2)c1` [Compound P-0010], for which the concentration for half-maximal inhibition (IC50) on Jnk1, at Abl, on c-Raf-1 and at Stk6 was at most 10 µM each time.
Regarding `CCCS(=O)(=O)Nc1ccc(F)c(C(=O)c2c[nH]c3ncc(OC)cc23)c1F` [Compound P-0806, Propane-1-sulfonic acid [2,4-difluoro-3-(5-methoxy-1H-pyrrolo[2,3-b]pyridine-3-carbonyl)-phenyl]-amide], the half-maximal inhibitory concentration (IC50) on Abl, at Fak, at c-Raf-1 and at Stk6 was at most 10 µM each time.
On to `O=C(c1ccccc1F)c1c[nH]c2ncc(-c3ccsc3)cc12` [Compound P-0134], for which the IC50 on Jnk1 and on Abl was at most 10 µM in each case.
For `Oc1cccc(Cc2c[nH]c3ncc(-c4ccsc4)cc23)c1` [Compound P-0056], the IC50 at Jnk1, at Abl and at Stk6 was at most 10 µM in each case.
Turning to `O=C(c1cccc(O)c1F)c1c[nH]c2ncc(Br)cc12` [Compound P-0067, (5-bromo-1H-pyrrolo[2,3-b]pyridin-3-yl)-(2-fluoro-3-hydroxy-phenyl)-methanone], the IC50 on Akt3 and at Fak was at most 10 µM each time.
In the case of `Oc1cc(O)cc(Cc2c[nH]c3ncc(-c4ccsc4)cc23)c1` [Compound P-0093], the IC50 at Abl and at Stk6 was at most 10 µM each time.
For the molecule `Cc1ccc(F)cc1C(=O)c1c[nH]c2ncc(-c3cccc(N)c3)cc12` [Compound P-0040], the IC50 on Jnk1, on Abl and on Stk6 was at most 10 µM in each case.
Take `O=C(c1cc(O)ccc1F)c1c[nH]c2ncc(-c3ccccc3)cc12` [Compound P-0045]: the IC50 on Jnk1, at Abl, on Fak, on c-Raf-1 and at Stk6 was at most 10 µM throughout.
